One data set has as its system HBV M protein. The format is cell-based. The method, then:
Hep G2 cells were transfected with an M only expression vector and the next day the cells divided equally into 6 well trays. Compound was added one day latter at the indicated concentrations and the media changed every two days. The presence of sub-viral particles in the medium was detected via the Abbott Diagnostics Auszyme Monoclonal Diagnostic Kit as per manufacture's directions. For Graph: Y-axis is the OD at 492. X-axis indicates the compounds or cells used in the assay.
Hep G2 cells transfected with the HBV M expression vector were treated with the glucosidase inhibitor NB-DNJ (4.5 mM and 6 days latter the amount of M protein associated with the culture medium (secreted) and the cells (retained) determined by ELISA. See text for more details. For graph: x-axis, Drug treatment and location of protein; for y-axis, % of HBV M protein as compared to untreated
Hep G2 cells were transfected with the M only expression vector and seeded as daughter flasks into 6 well trays. Following 4 days of treatment of glucosidase inhibitor (NB-DNJ (4.5 mM)), drug was either removed (in samples labels as —R) or left on as a control. Day 0 is the time in which drug was removed. […] Day 3 and Day 5 are days after drug removal. For Graph: Y-axis is the OD at 492. X-axis indicates the compounds or cells used in the assay. UN=untreated sample; Un-R is the untreated rebound sample; NB=N-butyl-DNJ; NB-R=N-butyl-DNJ rebound sample.
HBV M protein secretion is sensitive to glucosidase inhibition. Our previous work has determined that the secretion of HBV sub-viral particles containing the M protein was sensitive to glucosidase inhibition. (Mehta et al., 1997). That is, when Hep G2 2.215 cells were treated with the glucosidase inhibitor NB-DNJ, purified sub-viral particles appeared to lack the M protein. However, it was unclear if this was the result of the M protein's sensitivity to glucosidase inhibition or required some other viral factor. To test this hypothesis, an expression vector (pCMV-MS^−X) directs the expression of HBV M, but no other viral protein, was created. This “M only” expression vector was then used to determine if the M protein itself, in the absence of other viral functions, was sensitive to glucosidase inhibition. In addition, an expression vector, unable to express “M”, but able to express “S” was made on the same plasmid backbone as the “M” only vector, as was used as a control (pCMV-M^−SX). For these studies three imino sugars were used: N-butyl-DNJ, N-nonyl-DNJ and N-nonyl-DGJ. N-butyl-DNJ is our standard glucosidase inhibitor and has been used by several labs for over 10 years (Carlson et al.,1995, Block et al., 1994). […] Briefly, Hep G2 cells were transfected with the expression vectors pCMV HBV MS^−X and pCMV HBV M^−SX and subsequently seeded into fresh 6 well trays. The transfected cells were treated with the indicated concentrations of NB-DNJ, NN-DNJ or NN-DGJ (as a negative control) and three days latter the media analyzed for the presence of the HBV M or HBV S protein as described in Mehta et al, 2001. […] Fore example, concentrations of NN-DNJ which have no impact upon glycan inhibition, as determined by glycan analysis or α-1-acid-glycoprotein secretion, had no effect upon HBV M protein secretion (data not shown). In contrast to the effect of the glucosidase inhibitors on M protein secretion, the secretion of the HBV S protein was insensitive to either NB-DNJ or NN-DNJ providing further proof that the S protein is insensitive to glucosidase inhibition (data not shown; Block et al., 1994, Mehta et al., 1997, Werr & Prange, 1998). To determine if the secretion of the HBV M protein was prevented by another non-glucosidase mechanism, other compounds with the same alkyl side chain (tail) but altered imino sugar head groups, were synthesized. For example, NN-DGJ has the same chain length as NN-DNJ but is not a glucosidase inhibitor. […]

In data set [1] the test system is glucosidase. As to the kind of experiment: Glucosidase / glycan processing inhibition in cells. It is filed as cell-based. The following applies: 10 μg/ml.
On the set-up of data set [2]: species or system dogs. The conditions noted are these: dog, in vivo. As to the method:
Determination of the best glucosidase inhibitor and analysis of glucosidase inhibition. Although our work, confirmed by others, has shown that efficient secretion of the HBV glycoprotein MHBs and LHBs requires the function of the ER glucosidase, the specific glucosidase inhibitor that would be most sensible to use in vivo studies is not entirely obvious. […] However, NNDNJ has a dose limiting toxicity in dogs. Although this occurred at very high doses (more than 250 mg/kg), and we believe the toxicity was unrelated to the glucosidase inhibition mechanism), it seems wise to explore the possibility of alternative glucosidase inhibitors for the proposed study. Thus, Aim 1 will be to explore the possibility that other compounds, with less toxicity can be found. […] It is therefore an attractive back up compound. Thus, although NNDNJ could be used in the proposed studies as a “stalking horse” and for a proof of concept, it will be “parked” (held in reserve) as we test other glucosidase inhibitors in our portfolio. Identification of the most appropriate glucosidase inhibitor

The conditions of data set [3]: rat, in vivo. As to the method: Based upon the toxicology data obtained from a 14 day rat study on N-nonyl-DNJ, the toxicity with the alkovirs is predicated to be minimal. With N-nonyl-DNJ, toxicity primarily consisted of GI upset as a result of inhibiting the gut α-glucosidase enzymes involved in carbohydrate digestion. It should be noted that even though toxicity was observed, the maximum tolerated dose was determined to be 250 mg/kg bid. This was well above the amount required to achieve serum drug concentrations that were anti-viral.

A further data set deals with 2.2.15 cells. Put plainly: Selectivity index (CC90/IC90), MHBs secretion and MTT on 2.2.15 cells. The format is cell-based. From the text: Selectivity index and cytotoxicity assessment. The concentration of compound needed to reduce the amount of MHBs present in the culture medium (of MHBs producing cells) by 90%, relative to untreated or placebo treated controls will be considered to be the IC90 (inhibitory concentration, 90). The toxicity of the compounds to the tissue cultures will initially be determined the MTT assay, as described in (Lu et al., 1997). Briefly, the amount of MTT enzyme functional in the same sets of cells used for determination of the ability of a compound to reduce the secretion of MHBs (see above) will be measured. Thus, the impact of a compound upon cell viability will be assessed in the same cells in which MHBs reductions have been determined. The concentration of compound that results in a reduction of MTT activity (compared to untreated cultures) of 90% will be considered to be the CC90. The selectivity index will be expressed as the CC90 divided by the IC90. Using these criteria, as determined by assays on 2.2.15 cells under the conditions described in prelim. evidence, the selectivity index of NNDNJ is approximate 100. Thus, compounds will be considered attractive if they have a selectivity index of greater than 100.

Data set [4] has as its system glucosidase. The conditions noted are these: cited from earlier work.
The next data set has as its system liver cells. The conditions noted are these: cited from earlier work.

The text below walks through data of US20050053625A1, “Method of treating viral infections” (priority 2001, published 2005).

In the case of `CCCCCCCCCN1C[C@H](O)[C@@H](O)[C@H](O)[C@H]1CO` [NN-DNJ, 1,5-dideoxy-1,5-nonylylimino-D-glucitol], the “amount of M protein in the culture medium” value in the data set with HBV M protein (10 μg/ml) is given as “almost undetectable levels”. Moreover, the “HBV M protein secretion at concentrations with no impact upon glycan inhibition” value in the data set with HBV M protein (concentrations which have no impact upon glycan inhibition, data not shown) is “no effect”. The “secretion of the M protein” value with HBV M protein (indicated concentrations, three days, FIG. 4) is “prevented the secretion of the M protein”. For the same compound, the inhibits glycan processing with glucosidase [1] was 15-20%. Besides, the “dose at which dose limiting toxicity occurred” value in data set [2] is recorded as “more than 250 mg/kg”. Further, in data set [3], the maximum tolerated dose was 250 mg/kg bid and the toxicity observed result is recorded as “GI upset”. Moreover, the “selectivity index (CC90 divided by IC90)” value with 2.2.15 cells is about 100. Further, the inhibit glucosidase with glucosidase [4] was 15-20%. In the data set with liver cells, the “uptake by liver cells” value was “preferentially taken up by liver cells”.
